How the values were obtained:
[1] = tested on: Arabidopsis wildtype control plants; assay: Arabidopsis growth inhibition in 48-well plates, wildtype control; assay type: in vivo, Arabidopsis thaliana; settings: plant growth IC50 of line divided by that of wildtype plants
Experimental: Depending on the species, the plants are kept at 10-25° C. or 20-35° C. The test period extends over 3 weeks. During this time, the plants are tended and their response to the individual treatments is evaluated. Herbicide injury evaluations are taken at 2 and 3 weeks after treatment. Plant injury is rated on a scale of 0 to 9, 0 being no injury and 9 being complete death. Tolerance to coumarone-derivative herbicides can also be assessed in Arabidopsis. In this case transgenic Arabidopsis thaliana plants are assayed for improved tolerance to coumarone-derivative herbicides in 48-well plates. Seeds are surface sterilized by stirring for 5 min in ethanol+water (70+30 by volume), rinsing one time with ethanol+water (70+30 by volume) and two times with a sterile, deionized water. The seeds are resuspended in 0.1% agar dissolved in water (w/v). Four to five seeds per well are plated on solid nutrient medium consisting of half-strength Murashige Skoog nutrient solution, pH 5.8 (Murashige and Skoog (1962) Physiologia Plantarum 15: 473-497). […] Seven to ten days after seeding growth inhibition is evaluated by comparison to wild type plants. Tolerance factor is calculated by dividing the plant growth IC50 value of transgenic plants containing a HPPD and/or HST sequence by that of wildtype plants. […]

[2] = tested on: Blepharisma HPPD; assay: HPPD activity assay, Blepharisma HPPD; assay type: biochemical; settings: normalized on Arabidopsis wild-type HPPD
Experimental: HPPD produces homogentisic acid and CO2 from 4-hydroxyphenylpyruvate (4-HPP) and O2. The activity assay for HPPD is based on the analysis of homogentisic acid by reversed phase HPLC.
The assay mixture can contain 150 mM potassium phosphate buffer pH 7.0, 50 mM L-ascorbic acid, 1 μM FeSO4 and 7 μg of purified enzyme in a total volume of 1 ml.
Inhibitors are dissolved in DMSO (dimethylsulfoxide) to a concentration of 20 mM or 0.5 mM, respectively. From this stock solution serial five-fold dilutions are prepared in DMSO, which are used in the assay. The respective inhibitor solution accounts for 1% of the assay volume. […]
Activities are normalized by setting the uninhibited enzyme activity to 100%. IC50 values are calculated using non-linear regression. […]
Inhibitors are dissolved in DMSO (dimethylsulfoxide) to a concentration of 0.5 mM. […] IC50 values are calculated using non-linear regression.
Using methods which are described in the above examples or well known in the art, purified, recombinant wildtype HPPD enzymes are characterized with respect to their kinetic properties and sensitivity towards HPPD inhibiting herbicides. Apparent michaelis constants (Km) and maximal reaction velocities (Vmax) are calculated by non-linear regression with the software GraphPad Prism 5 (GraphPad Software, La Jolla, USA) using a substrate inhibition model. […]

SMILES	Tolerance factor [1]	Normalized tolerance index TI [2]
CC1=NOC(c2c(Cl)ccc(C3=C(O)c4ncccc4C(C)(C)S3(=O)=O)c2Cl)C1 (stereo not shown) [Inhibitor 1, 7-[2,4-dichloro-3-(3-methyl-4,5-dihydroisoxazol-5-yl)phenyl]-5,5-dimethyl-6,6-dioxo-thiopyrano[4,3-b]pyridin-8-ol]	1	12.4
CC1(C)c2cccnc2C(O)=C(c2ccc(Cl)nc2Cl)S1(=O)=O [Inhibitor 2, 7-(2,6-dichloro-3-pyridyl)-5,5-dimethyl-6,6-dioxo-thiopyrano[4,3-b]pyridin-8-ol]	1	–
COCCOCc1c(Cl)ccc(C2=C(O)c3ncccc3C(C)(C)S2(=O)=O)c1Cl [Inhibitor 3, 7-[2,4-dichloro-3-(2-methoxyethoxymethyl)phenyl]-5,5-dimethyl-6,6-dioxo-thiopyrano[4,3-b]pyridin-8-ol]	–	0.5
